Reference: PubChem BioAssay (NCI)
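Five concentrations, 48 hours, 96-well plates. GI50: concentration for 50% inhibition of growth. The concentration for full growth arrest is given as TGI.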

Assays:
Test in all cases: NCI-60 cell line screen, 48 h
786-0 renal = system: 786-0 renal
A498 renal = system: A498 renal
A549 NSCLC = system: A549 NSCLC
ACHN renal = system: ACHN renal
BT-549 breast = system: BT-549 breast
CAKI-1 renal = system: CAKI-1 renal
CCRF-CEM leukemia = system: CCRF-CEM leukemia
COLO 205 colon = system: COLO 205 colon
DU-145 prostate = system: DU-145 prostate
EKVX NSCLC = system: EKVX NSCLC
HCC-2998 colon = system: HCC-2998 colon
HCT-116 colon = system: HCT-116 colon
HCT-15 colon = system: HCT-15 colon
HL-60(TB) leukemia = system: HL-60(TB) leukemia
HOP-62 NSCLC = system: HOP-62 NSCLC
HOP-92 NSCLC = system: HOP-92 NSCLC
HS 578T breast = system: HS 578T breast
HT29 colon = system: HT29 colon
IGROV1 ovarian = system: IGROV1 ovarian
K-562 leukemia = system: K-562 leukemia
KM12 colon = system: KM12 colon
LOX IMVI melanoma = system: LOX IMVI melanoma
M14 melanoma = system: M14 melanoma
MALME-3M melanoma = system: MALME-3M melanoma
MCF7 breast = system: MCF7 breast
MDA-MB-231 breast = system: MDA-MB-231 breast
MDA-MB-435 = system: MDA-MB-435
MOLT-4 leukemia = system: MOLT-4 leukemia
NCI-H226 lung = system: NCI-H226 lung
NCI-H460 lung = system: NCI-H460 lung
NCI-H522 lung = system: NCI-H522 lung
NCI/ADR-RES ovarian = system: NCI/ADR-RES ovarian
OVCAR-3 ovarian = system: OVCAR-3 ovarian
OVCAR-4 ovarian = system: OVCAR-4 ovarian
OVCAR-5 ovarian = system: OVCAR-5 ovarian
OVCAR-8 ovarian = system: OVCAR-8 ovarian
PC-3 prostate = system: PC-3 prostate
RPMI-8226 leukemia = system: RPMI-8226 leukemia
RXF 393 renal = system: RXF 393 renal
SF-268 CNS = system: SF-268 CNS
SF-295 CNS = system: SF-295 CNS
SF-539 CNS = system: SF-539 CNS
SK-MEL-2 melanoma = system: SK-MEL-2 melanoma
SK-MEL-28 melanoma = system: SK-MEL-28 melanoma
SK-MEL-5 melanoma = system: SK-MEL-5 melanoma
SK-OV-3 ovarian = system: SK-OV-3 ovarian
SN12C renal = system: SN12C renal
SNB-19 CNS = system: SNB-19 CNS
SNB-75 CNS = system: SNB-75 CNS
SR leukemia = system: SR leukemia
SW-620 colon = system: SW-620 colon
T-47D breast = system: T-47D breast
TK-10 renal = system: TK-10 renal
U251 CNS = system: U251 CNS
UACC-257 melanoma = system: UACC-257 melanoma
UACC-62 melanoma = system: UACC-62 melanoma
UO-31 renal = system: UO-31 renal

N#Cc1c(-c2cccs2)cc(-c2cnccn2)nc1SCC(=O)N/N=C/c1ccccc1
GI50 (786-0 renal): 3.64 µM
TGI (786-0 renal): 14.4 µM
GI50 (A498 renal): 4.46 µM
TGI (A498 renal): 17.3 µM
GI50 (A549 NSCLC): 5.66 µM
TGI (A549 NSCLC): 20.2 µM
GI50 (ACHN renal): 6.14 µM
TGI (ACHN renal): 18.7 µM
GI50 (BT-549 breast): 8.31 µM
TGI (BT-549 breast): 20.7 µM
GI50 (CAKI-1 renal): 3.66 µM
TGI (CAKI-1 renal): 14.1 µM
GI50 (CCRF-CEM leukemia): 49.9 µM
TGI (CCRF-CEM leukemia): > 100 µM
GI50 (COLO 205 colon): 11.3 µM
TGI (COLO 205 colon): > 100 µM
GI50 (DU-145 prostate): 3.86 µM
TGI (DU-145 prostate): 12.7 µM
GI50 (EKVX NSCLC): 6.48 µM
TGI (EKVX NSCLC): 19.4 µM
GI50 (HCC-2998 colon): 10.7 µM
TGI (HCC-2998 colon): 25.1 µM
GI50 (HCT-116 colon): 5.14 µM
TGI (HCT-116 colon): 17.3 µM
GI50 (HCT-15 colon): 6.88 µM
TGI (HCT-15 colon): 27.4 µM
GI50 (HL-60(TB) leukemia): > 100 µM
TGI (HL-60(TB) leukemia): > 100 µM
GI50 (HOP-62 NSCLC): 3.2 µM
TGI (HOP-62 NSCLC): 11 µM
GI50 (HOP-92 NSCLC): 2.26 µM
TGI (HOP-92 NSCLC): 8.49 µM
GI50 (HS 578T breast): 6.77 µM
TGI (HS 578T breast): 31.8 µM
GI50 (HT29 colon): 4.98 µM
TGI (HT29 colon): 21.3 µM
GI50 (IGROV1 ovarian): 5.09 µM
TGI (IGROV1 ovarian): 17.3 µM
GI50 (K-562 leukemia): 10.8 µM
TGI (K-562 leukemia): > 100 µM
GI50 (KM12 colon): 9.18 µM
TGI (KM12 colon): > 100 µM
GI50 (LOX IMVI melanoma): 2.8 µM
TGI (LOX IMVI melanoma): 10 µM
GI50 (M14 melanoma): 4.98 µM
TGI (M14 melanoma): 16.4 µM
GI50 (MALME-3M melanoma): 3.33 µM
TGI (MALME-3M melanoma): 9.49 µM
GI50 (MCF7 breast): 3.52 µM
TGI (MCF7 breast): 14.8 µM
GI50 (MDA-MB-231 breast): 4.23 µM
TGI (MDA-MB-231 breast): 15.1 µM
GI50 (MDA-MB-435): 4.49 µM
TGI (MDA-MB-435): 16.2 µM
GI50 (MOLT-4 leukemia): 47 µM
TGI (MOLT-4 leukemia): > 100 µM
GI50 (NCI-H226 lung): 3.41 µM
TGI (NCI-H226 lung): 12.9 µM
GI50 (NCI-H460 lung): 3.93 µM
TGI (NCI-H460 lung): 13.3 µM
GI50 (NCI-H522 lung): 10.3 µM
TGI (NCI-H522 lung): 23.9 µM
GI50 (NCI/ADR-RES ovarian): 4.95 µM
TGI (NCI/ADR-RES ovarian): 16.7 µM
GI50 (OVCAR-3 ovarian): 3.88 µM
TGI (OVCAR-3 ovarian): 12.3 µM
GI50 (OVCAR-4 ovarian): 3.61 µM
TGI (OVCAR-4 ovarian): 15.3 µM
GI50 (OVCAR-5 ovarian): 10.4 µM
TGI (OVCAR-5 ovarian): 23.3 µM
GI50 (OVCAR-8 ovarian): 6.01 µM
TGI (OVCAR-8 ovarian): 19.4 µM
GI50 (PC-3 prostate): 6.29 µM
TGI (PC-3 prostate): 19.2 µM
GI50 (RPMI-8226 leukemia): 3.46 µM
TGI (RPMI-8226 leukemia): 20.9 µM
GI50 (RXF 393 renal): 2.5 µM
TGI (RXF 393 renal): 6.97 µM
GI50 (SF-268 CNS): 10.3 µM
TGI (SF-268 CNS): 24.6 µM
GI50 (SF-295 CNS): 4.92 µM
TGI (SF-295 CNS): 17.1 µM
GI50 (SF-539 CNS): 6.64 µM
TGI (SF-539 CNS): 19.3 µM
GI50 (SK-MEL-2 melanoma): 10.3 µM
TGI (SK-MEL-2 melanoma): 23 µM
GI50 (SK-MEL-28 melanoma): 4.06 µM
TGI (SK-MEL-28 melanoma): 14.5 µM
GI50 (SK-MEL-5 melanoma): 3.52 µM
TGI (SK-MEL-5 melanoma): 13 µM
GI50 (SK-OV-3 ovarian): 14.7 µM
TGI (SK-OV-3 ovarian): 27.9 µM
GI50 (SN12C renal): 6.15 µM
TGI (SN12C renal): 18.8 µM
GI50 (SNB-19 CNS): 7.21 µM
TGI (SNB-19 CNS): 19.8 µM
GI50 (SNB-75 CNS): 3.3 µM
TGI (SNB-75 CNS): 18.5 µM
GI50 (SR leukemia): 11.2 µM
TGI (SR leukemia): 35.8 µM
GI50 (SW-620 colon): 4.97 µM
TGI (SW-620 colon): 20.2 µM
GI50 (T-47D breast): 2.94 µM
TGI (T-47D breast): 15.7 µM
GI50 (TK-10 renal): 4.51 µM
TGI (TK-10 renal): 15.3 µM
GI50 (U251 CNS): 3.43 µM
TGI (U251 CNS): 12.1 µM
GI50 (UACC-257 melanoma): 15.1 µM
TGI (UACC-257 melanoma): 48.6 µM
GI50 (UACC-62 melanoma): 8.67 µM
TGI (UACC-62 melanoma): 21 µM
GI50 (UO-31 renal): 6.1 µM
TGI (UO-31 renal): 19.6 µM
